In paper PMC11345841, “Exploring 2-Sulfonylpyrimidine Warheads as Acrylamide Surrogates for Targeted Covalent Inhibition: A BTK Story” (Journal of Medicinal Chemistry, 2024):
Like-named read-outs stand apart in the source and are kept apart here. Each block holds one molecule with its values, some of them ahead of it.

Assays:
Experiment in all cases: KINOMEscan ScanTK
Type in all cases: binding
TYRO3 = molecular target: T1, TYRO3 (Homo sapiens, UniProt Q06418)
T1 construct: purchased Eurofins DiscoverX KINOMEscan (scanTK)
T1 sequence (Q06418 41-890): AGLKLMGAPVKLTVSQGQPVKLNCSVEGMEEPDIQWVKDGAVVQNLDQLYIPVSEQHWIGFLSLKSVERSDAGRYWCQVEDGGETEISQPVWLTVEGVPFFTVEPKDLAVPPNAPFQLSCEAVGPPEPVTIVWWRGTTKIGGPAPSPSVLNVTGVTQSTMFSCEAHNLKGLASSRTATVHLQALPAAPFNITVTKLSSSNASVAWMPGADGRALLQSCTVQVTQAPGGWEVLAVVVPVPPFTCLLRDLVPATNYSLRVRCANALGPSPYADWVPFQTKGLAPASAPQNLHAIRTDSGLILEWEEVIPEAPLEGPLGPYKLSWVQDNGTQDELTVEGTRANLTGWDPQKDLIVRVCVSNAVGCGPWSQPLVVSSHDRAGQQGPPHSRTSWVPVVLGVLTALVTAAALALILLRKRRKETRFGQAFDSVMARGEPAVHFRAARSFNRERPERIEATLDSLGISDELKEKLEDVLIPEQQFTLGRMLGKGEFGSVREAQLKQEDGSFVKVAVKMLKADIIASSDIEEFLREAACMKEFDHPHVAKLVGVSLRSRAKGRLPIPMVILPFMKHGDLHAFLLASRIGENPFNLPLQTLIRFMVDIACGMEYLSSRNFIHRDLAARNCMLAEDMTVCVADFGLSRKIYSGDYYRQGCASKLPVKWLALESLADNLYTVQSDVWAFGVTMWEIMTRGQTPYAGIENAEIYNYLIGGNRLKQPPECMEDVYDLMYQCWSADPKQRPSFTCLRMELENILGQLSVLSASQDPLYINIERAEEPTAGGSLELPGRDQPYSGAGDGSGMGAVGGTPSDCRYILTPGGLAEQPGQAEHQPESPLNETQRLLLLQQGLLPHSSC

KIT-autoinhibited = molecular target: T2, KIT-autoinhibited (Homo sapiens, UniProt P10721)
T2 construct: purchased Eurofins DiscoverX KINOMEscan (scanTK)
T2 sequence (P10721 26-976): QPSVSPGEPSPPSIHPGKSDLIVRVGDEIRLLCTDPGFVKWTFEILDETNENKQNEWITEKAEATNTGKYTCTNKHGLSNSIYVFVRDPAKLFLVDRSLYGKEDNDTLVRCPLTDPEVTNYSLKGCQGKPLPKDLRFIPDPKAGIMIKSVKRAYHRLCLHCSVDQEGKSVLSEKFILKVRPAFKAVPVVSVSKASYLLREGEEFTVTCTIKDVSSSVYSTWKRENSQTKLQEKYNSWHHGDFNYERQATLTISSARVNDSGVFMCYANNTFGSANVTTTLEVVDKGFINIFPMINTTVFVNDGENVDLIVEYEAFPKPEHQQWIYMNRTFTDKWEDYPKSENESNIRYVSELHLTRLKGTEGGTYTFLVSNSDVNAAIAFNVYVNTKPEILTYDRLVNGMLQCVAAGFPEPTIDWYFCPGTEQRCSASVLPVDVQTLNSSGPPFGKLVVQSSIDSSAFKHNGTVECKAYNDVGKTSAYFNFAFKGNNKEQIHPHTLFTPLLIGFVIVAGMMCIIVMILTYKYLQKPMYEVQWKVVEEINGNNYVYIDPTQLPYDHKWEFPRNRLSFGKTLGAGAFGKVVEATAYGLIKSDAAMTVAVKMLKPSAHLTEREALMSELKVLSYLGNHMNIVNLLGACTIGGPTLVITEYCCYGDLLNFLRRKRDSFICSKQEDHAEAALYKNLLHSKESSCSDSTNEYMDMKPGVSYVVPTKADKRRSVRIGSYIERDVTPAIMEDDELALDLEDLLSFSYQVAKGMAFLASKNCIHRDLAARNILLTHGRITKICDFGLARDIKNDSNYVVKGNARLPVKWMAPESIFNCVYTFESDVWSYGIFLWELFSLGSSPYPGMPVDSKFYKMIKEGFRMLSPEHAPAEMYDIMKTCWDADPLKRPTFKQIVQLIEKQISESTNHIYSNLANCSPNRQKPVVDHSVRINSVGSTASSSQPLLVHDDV

FGFR3(G697C) = molecular target: T3, FGFR3(G697C) (Homo sapiens, UniProt P22607, G697C)
T3 construct: purchased Eurofins DiscoverX KINOMEscan (scanTK)
T3 sequence (P22607 23-806 G697C): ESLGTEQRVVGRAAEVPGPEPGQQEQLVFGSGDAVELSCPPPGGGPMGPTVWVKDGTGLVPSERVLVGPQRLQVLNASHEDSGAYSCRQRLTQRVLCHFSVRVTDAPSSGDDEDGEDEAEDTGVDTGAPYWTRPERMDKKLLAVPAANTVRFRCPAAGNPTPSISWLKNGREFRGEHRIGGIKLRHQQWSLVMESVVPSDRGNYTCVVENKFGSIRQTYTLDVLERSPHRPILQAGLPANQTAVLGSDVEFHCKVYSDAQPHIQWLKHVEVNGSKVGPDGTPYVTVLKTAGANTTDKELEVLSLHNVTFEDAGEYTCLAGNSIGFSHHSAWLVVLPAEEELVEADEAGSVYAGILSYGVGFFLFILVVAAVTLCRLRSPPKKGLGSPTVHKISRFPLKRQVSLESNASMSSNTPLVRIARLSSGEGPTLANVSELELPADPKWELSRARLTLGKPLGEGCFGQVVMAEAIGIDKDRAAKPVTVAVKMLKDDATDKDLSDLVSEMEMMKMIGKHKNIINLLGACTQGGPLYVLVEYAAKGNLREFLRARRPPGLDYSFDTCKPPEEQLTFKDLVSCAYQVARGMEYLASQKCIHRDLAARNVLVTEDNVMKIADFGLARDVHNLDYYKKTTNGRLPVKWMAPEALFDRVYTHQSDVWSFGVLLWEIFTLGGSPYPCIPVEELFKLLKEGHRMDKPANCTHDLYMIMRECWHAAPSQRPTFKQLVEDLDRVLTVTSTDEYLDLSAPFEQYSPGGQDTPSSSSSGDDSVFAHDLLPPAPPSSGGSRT

INSR = molecular target: T4, INSR (Homo sapiens, UniProt P06213)
T4 construct: purchased Eurofins DiscoverX KINOMEscan (scanTK)

ITK = molecular target: T5, ITK (Homo sapiens, UniProt Q08881); conditions: for inhibition at 1 µM: ScanTK
T5 construct: purchased Eurofins DiscoverX KINOMEscan (scanTK)
T5 sequence (Q08881 1-620): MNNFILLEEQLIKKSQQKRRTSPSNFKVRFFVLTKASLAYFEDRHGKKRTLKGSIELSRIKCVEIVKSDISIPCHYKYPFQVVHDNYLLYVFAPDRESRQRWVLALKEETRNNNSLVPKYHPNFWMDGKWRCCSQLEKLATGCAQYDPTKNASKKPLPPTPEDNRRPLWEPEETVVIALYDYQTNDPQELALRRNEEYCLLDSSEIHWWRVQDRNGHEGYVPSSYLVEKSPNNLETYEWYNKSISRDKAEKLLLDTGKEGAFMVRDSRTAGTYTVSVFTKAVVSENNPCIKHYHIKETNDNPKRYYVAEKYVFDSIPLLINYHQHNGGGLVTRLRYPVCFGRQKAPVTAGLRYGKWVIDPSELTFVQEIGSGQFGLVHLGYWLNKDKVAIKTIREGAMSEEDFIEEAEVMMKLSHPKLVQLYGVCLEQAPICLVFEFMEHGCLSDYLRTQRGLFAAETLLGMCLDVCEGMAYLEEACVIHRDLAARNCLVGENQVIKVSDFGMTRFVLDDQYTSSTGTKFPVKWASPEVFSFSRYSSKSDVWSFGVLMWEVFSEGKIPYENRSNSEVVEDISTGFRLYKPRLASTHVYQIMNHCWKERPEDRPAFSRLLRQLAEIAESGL

FER = molecular target: T6, FER (Homo sapiens, UniProt P16591)
T6 construct: purchased Eurofins DiscoverX KINOMEscan (scanTK)
T6 sequence (P16591 whole entry): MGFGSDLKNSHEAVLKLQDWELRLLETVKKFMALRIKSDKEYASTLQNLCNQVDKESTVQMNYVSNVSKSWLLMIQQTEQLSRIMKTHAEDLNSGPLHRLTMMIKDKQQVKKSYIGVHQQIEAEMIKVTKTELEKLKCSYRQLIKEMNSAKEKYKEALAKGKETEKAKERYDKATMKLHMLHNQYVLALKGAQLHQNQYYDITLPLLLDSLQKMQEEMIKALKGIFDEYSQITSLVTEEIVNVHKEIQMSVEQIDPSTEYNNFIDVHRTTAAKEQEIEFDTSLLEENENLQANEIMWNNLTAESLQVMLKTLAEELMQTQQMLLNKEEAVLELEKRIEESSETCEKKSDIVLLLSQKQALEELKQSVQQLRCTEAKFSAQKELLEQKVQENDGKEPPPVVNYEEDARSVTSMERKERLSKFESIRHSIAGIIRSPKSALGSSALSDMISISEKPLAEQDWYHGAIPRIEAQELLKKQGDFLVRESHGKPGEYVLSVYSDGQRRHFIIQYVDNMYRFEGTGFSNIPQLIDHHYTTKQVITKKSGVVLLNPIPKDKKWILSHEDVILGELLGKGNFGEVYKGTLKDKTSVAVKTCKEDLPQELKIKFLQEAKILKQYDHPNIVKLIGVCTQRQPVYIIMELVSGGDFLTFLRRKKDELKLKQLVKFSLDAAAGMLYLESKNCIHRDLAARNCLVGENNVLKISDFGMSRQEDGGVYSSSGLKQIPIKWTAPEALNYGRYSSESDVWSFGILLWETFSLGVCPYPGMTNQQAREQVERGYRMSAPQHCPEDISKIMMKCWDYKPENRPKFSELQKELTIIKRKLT

FYN = molecular target: T7, FYN (Homo sapiens, UniProt P06241)
T7 construct: purchased Eurofins DiscoverX KINOMEscan (scanTK)

FGFR1 = molecular target: T8, FGFR1 (Homo sapiens, UniProt P11362)
T8 construct: purchased Eurofins DiscoverX KINOMEscan (scanTK)
T8 sequence (P11362 22-822): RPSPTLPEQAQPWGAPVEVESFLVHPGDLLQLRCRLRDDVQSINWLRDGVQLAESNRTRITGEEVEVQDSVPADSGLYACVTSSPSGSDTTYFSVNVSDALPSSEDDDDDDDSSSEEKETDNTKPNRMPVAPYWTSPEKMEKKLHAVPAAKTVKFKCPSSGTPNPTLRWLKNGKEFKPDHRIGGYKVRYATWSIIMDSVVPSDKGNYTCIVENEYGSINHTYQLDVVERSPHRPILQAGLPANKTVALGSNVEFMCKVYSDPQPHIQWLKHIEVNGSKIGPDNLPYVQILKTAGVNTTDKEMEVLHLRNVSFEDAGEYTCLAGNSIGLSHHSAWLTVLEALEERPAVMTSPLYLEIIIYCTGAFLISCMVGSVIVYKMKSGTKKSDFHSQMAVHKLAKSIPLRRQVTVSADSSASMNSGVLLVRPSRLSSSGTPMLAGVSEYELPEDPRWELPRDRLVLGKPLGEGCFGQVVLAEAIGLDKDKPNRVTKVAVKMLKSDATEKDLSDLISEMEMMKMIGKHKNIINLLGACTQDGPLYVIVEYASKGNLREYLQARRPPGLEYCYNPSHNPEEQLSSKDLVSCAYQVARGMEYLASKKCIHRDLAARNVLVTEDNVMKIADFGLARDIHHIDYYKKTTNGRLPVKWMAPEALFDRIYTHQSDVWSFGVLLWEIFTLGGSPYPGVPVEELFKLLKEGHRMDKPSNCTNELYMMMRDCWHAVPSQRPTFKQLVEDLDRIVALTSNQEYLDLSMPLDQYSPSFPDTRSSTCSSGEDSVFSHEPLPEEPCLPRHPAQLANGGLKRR

TIE1 = molecular target: T9, TIE1 (Homo sapiens, UniProt P35590)
T9 construct: purchased Eurofins DiscoverX KINOMEscan (scanTK)

MET = molecular target: T10, MET (Homo sapiens, UniProt P08581)
T10 construct: purchased Eurofins DiscoverX KINOMEscan (scanTK)
T10 sequence (P08581 25-1390): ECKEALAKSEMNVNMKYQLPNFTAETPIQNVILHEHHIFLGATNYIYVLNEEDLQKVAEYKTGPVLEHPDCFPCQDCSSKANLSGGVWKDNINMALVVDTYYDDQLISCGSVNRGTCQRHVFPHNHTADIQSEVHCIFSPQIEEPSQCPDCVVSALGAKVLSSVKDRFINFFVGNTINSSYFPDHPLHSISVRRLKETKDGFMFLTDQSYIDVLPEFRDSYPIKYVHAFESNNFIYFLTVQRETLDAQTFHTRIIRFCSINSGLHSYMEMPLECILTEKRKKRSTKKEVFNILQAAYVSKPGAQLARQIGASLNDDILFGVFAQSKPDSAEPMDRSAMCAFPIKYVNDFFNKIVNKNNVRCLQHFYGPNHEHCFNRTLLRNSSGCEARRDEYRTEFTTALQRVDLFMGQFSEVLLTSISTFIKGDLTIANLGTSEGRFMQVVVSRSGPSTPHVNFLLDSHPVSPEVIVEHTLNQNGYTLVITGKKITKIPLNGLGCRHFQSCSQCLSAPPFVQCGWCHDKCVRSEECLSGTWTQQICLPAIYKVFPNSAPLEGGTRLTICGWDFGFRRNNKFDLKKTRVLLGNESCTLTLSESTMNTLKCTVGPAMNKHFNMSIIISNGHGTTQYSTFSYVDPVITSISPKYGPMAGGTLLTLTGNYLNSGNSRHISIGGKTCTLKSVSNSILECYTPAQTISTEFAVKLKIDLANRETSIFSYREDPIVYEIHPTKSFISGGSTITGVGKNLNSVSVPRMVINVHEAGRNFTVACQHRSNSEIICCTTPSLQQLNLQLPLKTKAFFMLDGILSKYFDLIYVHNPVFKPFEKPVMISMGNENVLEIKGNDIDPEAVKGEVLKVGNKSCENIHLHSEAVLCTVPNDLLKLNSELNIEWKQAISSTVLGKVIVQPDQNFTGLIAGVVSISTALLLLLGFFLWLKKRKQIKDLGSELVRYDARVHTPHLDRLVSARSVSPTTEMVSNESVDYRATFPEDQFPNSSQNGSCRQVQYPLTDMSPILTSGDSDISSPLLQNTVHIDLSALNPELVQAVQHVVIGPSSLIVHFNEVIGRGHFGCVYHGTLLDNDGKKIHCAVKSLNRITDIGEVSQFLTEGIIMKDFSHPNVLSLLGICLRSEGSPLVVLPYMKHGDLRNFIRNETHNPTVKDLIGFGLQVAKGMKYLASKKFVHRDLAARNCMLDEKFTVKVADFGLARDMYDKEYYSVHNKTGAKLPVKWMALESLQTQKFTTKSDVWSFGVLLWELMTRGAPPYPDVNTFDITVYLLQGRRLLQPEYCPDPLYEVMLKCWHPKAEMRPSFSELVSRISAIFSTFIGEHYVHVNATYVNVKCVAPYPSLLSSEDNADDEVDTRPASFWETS

[1] = molecular target: T11, ABL1(Y253F)-phosphorylated (Homo sapiens, UniProt P00519, Y253F)
T11 construct: purchased Eurofins DiscoverX KINOMEscan (scanTK)

ERBB3 = molecular target: T12, ERBB3 (Homo sapiens, UniProt P21860)
T12 construct: purchased Eurofins DiscoverX KINOMEscan (scanTK)

ALK(L1196M) = molecular target: T13, ALK(L1196M) (Homo sapiens, UniProt Q9UM73, L1196M)
T13 construct: purchased Eurofins DiscoverX KINOMEscan (scanTK)

SRMS = molecular target: T14, SRMS (Homo sapiens, UniProt Q9H3Y6); conditions: for remaining binding at 1 µM: SRMS
T14 construct: purchased Eurofins DiscoverX KINOMEscan (scanTK)

[2] = molecular target: T15, ABL1(F317I)-nonphosphorylated (Homo sapiens, UniProt P00519, F317I)
T15 construct: purchased Eurofins DiscoverX KINOMEscan (scanTK)

FLT1 = molecular target: T16, FLT1 (Homo sapiens, UniProt P17948)
T16 construct: purchased Eurofins DiscoverX KINOMEscan (scanTK)

RET(V804L) = molecular target: T17, RET(V804L) (Homo sapiens, UniProt P07949, V804L)
T17 construct: purchased Eurofins DiscoverX KINOMEscan (scanTK)

[3] = @1000nM, ITK, read-out: %Control
[4] = ITK, read-out: %Control @1000nM
[5] = @1000nM, ERBB3, read-out: %Control
[6] = ERBB3, read-out: %Control @1000nM

SMILES: C=CC(=O)N1CCC[C@@H](n2nc(-c3ccc(Oc4ccccc4)cc3)c3c(N)ncnc32)C1 [Compound 1g, Ibrutinib, reference compound]
remaining binding at 1 µM (TYRO3; @1000nM, read-out: %Control): 34%
remaining binding at 1 µM (TYRO3; read-out: %Control @1000nM): 34%
remaining binding at 1 µM (KIT-autoinhibited; @1000nM, read-out: %Control): 88%
remaining binding at 1 µM (KIT-autoinhibited; read-out: %Control @1000nM): 88%
remaining binding at 1 µM (FGFR3(G697C); @1000nM, read-out: %Control): 40%
remaining binding at 1 µM (FGFR3(G697C); read-out: %Control @1000nM): 40%
remaining binding at 1 µM (INSR; @1000nM, read-out: %Control): 100%
remaining binding at 1 µM (INSR; read-out: %Control @1000nM): 100%
remaining binding at 1 µM (ITK; [3]): 15%
remaining binding at 1 µM (ITK; [4]): 15%
inhibition at 1 µM (ITK): 85%
remaining binding at 1 µM (FER; @1000nM, read-out: %Control): 100%
remaining binding at 1 µM (FER; read-out: %Control @1000nM): 100%
remaining binding at 1 µM (FYN; @1000nM, read-out: %Control): 9.6%
remaining binding at 1 µM (FYN; read-out: %Control @1000nM): 9.6%
remaining binding at 1 µM (FGFR1; @1000nM, read-out: %Control): 33%
remaining binding at 1 µM (FGFR1; read-out: %Control @1000nM): 33%
remaining binding at 1 µM (TIE1; @1000nM, read-out: %Control): 57%
remaining binding at 1 µM (TIE1; read-out: %Control @1000nM): 57%
remaining binding at 1 µM (MET; @1000nM, read-out: %Control): 100%
remaining binding at 1 µM (MET; read-out: %Control @1000nM): 100%
remaining binding at 1 µM ([1]; @1000nM, read-out: %Control): 77%
remaining binding at 1 µM ([1]; read-out: %Control @1000nM): 77%
remaining binding at 1 µM (ERBB3; [5]): 0%
remaining binding at 1 µM (ERBB3; [6]): 0%
inhibition at 1 µM (ERBB3; read-out: % inhibition, ERBB3): > 99%
remaining binding at 1 µM (ALK(L1196M); @1000nM, read-out: %Control): 100%
remaining binding at 1 µM (ALK(L1196M); read-out: %Control @1000nM): 100%
remaining binding at 1 µM (SRMS; @1000nM, read-out: %Control): 0%
remaining binding at 1 µM (SRMS; read-out: %Control @1000nM): 0%
inhibition at 1 µM (SRMS; read-out: % inhibition, SRMS): > 99%
remaining binding at 1 µM ([2]; @1000nM, read-out: %Control): 52%
remaining binding at 1 µM ([2]; read-out: %Control @1000nM): 52%
remaining binding at 1 µM (FLT1; @1000nM, read-out: %Control): 72%
remaining binding at 1 µM (FLT1; read-out: %Control @1000nM): 72%

remaining binding at 1 µM (TYRO3; @1000nM, read-out: %Control): 40%
remaining binding at 1 µM (TYRO3; read-out: %Control @1000nM): 40%
remaining binding at 1 µM (KIT-autoinhibited; @1000nM, read-out: %Control): 94%
remaining binding at 1 µM (KIT-autoinhibited; read-out: %Control @1000nM): 94%
remaining binding at 1 µM (RET(V804L); @1000nM, read-out: %Control): 100%
remaining binding at 1 µM (RET(V804L); read-out: %Control @1000nM): 100%
difference in %Control versus compound Ib at 1 µM (FGFR3(G697C); @1000nM): 50%
remaining binding at 1 µM (FGFR3(G697C); @1000nM, read-out: %Control): 90%
remaining binding at 1 µM (FGFR3(G697C); read-out: %Control @1000nM): 90%
difference in %Control versus compound Ib at 1 µM (INSR; @1000nM): 0%
remaining binding at 1 µM (INSR; @1000nM, read-out: %Control): 100%
remaining binding at 1 µM (INSR; read-out: %Control @1000nM): 100%
difference in %Control versus compound Ib at 1 µM (ITK; @1000nM, ITK): 73%
remaining binding at 1 µM (ITK; [3]): 88%
remaining binding at 1 µM (ITK; [4]): 88%
inhibition at 1 µM (ITK): 12%
difference in %Control versus compound Ib at 1 µM (FER; @1000nM): 0%
remaining binding at 1 µM (FER; @1000nM, read-out: %Control): 100%
remaining binding at 1 µM (FER; read-out: %Control @1000nM): 100%
difference in % of control versus compound Ib at 1 µM (FYN; @1000nM): 30.4%
remaining binding at 1 µM (FYN; @1000nM, read-out: %Control): 40%
remaining binding at 1 µM (FYN; read-out: %Control @1000nM): 40%
difference in %Control from compound Ib at 1 µM (FGFR1; @1000nM): 53%
remaining binding at 1 µM (FGFR1; @1000nM, read-out: %Control): 86%
remaining binding at 1 µM (FGFR1; read-out: %Control @1000nM): 86%
remaining binding at 1 µM (TIE1; @1000nM, read-out: %Control): 60%
remaining binding at 1 µM (TIE1; read-out: %Control @1000nM): 60%
remaining binding at 1 µM (MET; @1000nM, read-out: %Control): 100%
remaining binding at 1 µM (MET; read-out: %Control @1000nM): 100%
difference in %Control from compound Ib at 1 µM ([1]; @1000nM): 4%
remaining binding at 1 µM ([1]; @1000nM, read-out: %Control): 81%
remaining binding at 1 µM ([1]; read-out: %Control @1000nM): 81%
% of control difference from compound Ib at 1 µM (ERBB3; @1000nM, ERBB3): 39%
remaining binding at 1 µM (ERBB3; [5]): 39%
remaining binding at 1 µM (ERBB3; [6]): 39%
difference in % of control vs compound Ib at 1 µM (ALK(L1196M); @1000nM): -23%
remaining binding at 1 µM (ALK(L1196M); @1000nM, read-out: %Control): 77%
remaining binding at 1 µM (ALK(L1196M); read-out: %Control @1000nM): 77%
remaining binding at 1 µM (SRMS; @1000nM, read-out: %Control): 32%
remaining binding at 1 µM (SRMS; read-out: %Control @1000nM): 32%
difference in %Control versus compound Ib at 1 µM ([2]; @1000nM): 46%
remaining binding at 1 µM ([2]; @1000nM, read-out: %Control): 98%
remaining binding at 1 µM ([2]; read-out: %Control @1000nM): 98%
difference in %Control from compound Ib at 1 µM (FLT1; @1000nM): 28%
remaining binding at 1 µM (FLT1; @1000nM, read-out: %Control): 100%
remaining binding at 1 µM (FLT1; read-out: %Control @1000nM): 100%
SMILES: CCOC(=O)c1cnc(S(C)(=O)=O)nc1N1CCC[C@@H](n2nc(-c3ccc(Oc4ccccc4)cc3)c3c(N)ncnc32)C1 [Compound 8c, Ethyl (R)-4-(3-(4-Amino-3-(4-phenoxyphenyl)-1H-pyrazolo[3,4-d]pyrimidin-1-yl)piperidin-1-yl)-2-(methylsulfonyl)pyrimidine-5-carboxylate]
